Laboratory results published in US20230120895A1, “PESTICIDALLY ACTIVE HETEROCYCLIC DERIVATIVES WITH SULFUR CONTAINING SUBSTITUENTS” (SYNGENTA CROP PROTECTION AG, priority 2019, published 2023).

Columns and labels:
Type in all cases: in vivo
Plutella xylostella = assay: Activity against Plutella xylostella (diamond back moth); conditions: 192 h, application rate 200 ppm, artificial diet, eggs, 8 days after infestation, read-out: effect in at least one of the two categories (mortality or growth inhibition)
Protocol: 24-well microtiter plates with artificial diet were treated with aqueous test solutions prepared from 10′000 ppm DMSO stock solutions by pipetting. After drying, Plutella eggs were pipetted through a plastic stencil onto a gel blotting paper and the plate was closed with it. The samples were assessed for mortality and growth inhibition in comparison to untreated samples 8 days after infestation. The following compounds gave an effect of at least 80% in at least one of the two categories (mortality or growth inhibition) at an application rate of 200 ppm: P2, P3, P4, P5, P6, P8, P13.

Myzus persicae [1] = assay: Activity against Myzus persicae (green peach aphid), systemic activity; conditions: 144 h, test rate 24 ppm, roots of pea seedlings in test solution, 6 days
Protocol: Roots of pea seedlings infested with an aphid population of mixed ages were placed directly into aqueous test solutions prepared from 10′000 DMSO stock solutions. The samples were assessed for mortality 6 days after placing seedlings into test solutions.

Euschistus heros = assay: Activity against Euschistus heros (neotropical brown stink bug); conditions: 120 h, application rate 200 ppm, sprayed soybean leaves, N2 nymphs, 5 days after infestation, read-out: effect in at least one of the two categories (mortality or growth inhibition)
Protocol: Soybean leaves on agar in 24-well microtiter plates were sprayed with aqueous test solutions prepared from 10′000 ppm DMSO stock solutions. After drying the leaves were infested with N2 nymphs. The samples were assessed for mortality and growth inhibition in comparison to untreated samples 5 days after infestation.

Myzus persicae [2] = assay: Activity against Myzus persicae (green peach aphid), feeding/contact activity; conditions: foliar, 144 h, application rate 200 ppm, sprayed sunflower leaf discs, mixed ages, 6 days after infestation
Protocol: Sunflower leaf discs were placed onto agar in a 24-well microtiter plate and sprayed with aqueous test solutions prepared from 10′000 ppm DMSO stock solutions. After drying, the leaf discs were infested with an aphid population of mixed ages. The samples were assessed for mortality 6 days after infestation.

Spodoptera littoralis = assay: Activity against Spodoptera littoralis (Egyptian cotton leaf worm); conditions: foliar, 72 h, application rate 200 ppm, sprayed cotton leaf discs, L1 larvae, 3 days after infestation, read-out: control (mortality, anti-feeding effect or growth inhibition)
Protocol: Cotton leaf discs were placed onto agar in 24-well microtiter plates and sprayed with aqueous test solutions prepared from 10′000 ppm DMSO stock solutions. After drying the leaf discs were infested with five L1 larvae. The samples were assessed for mortality, anti-feeding effect, and growth inhibition in comparison to untreated samples 3 days after infestation. Control of Spodoptera littoralis by a test sample is given when at least one of the categories mortality, anti-feedant effect, and growth inhibition is higher than the untreated sample.

Chilo suppressalis = assay: Activity against Chilo suppressalis (striped rice stemborer); conditions: 144 h, application rate 200 ppm, artificial diet, L2 larvae, 6 days after infestation, read-out: control (mortality, anti-feeding effect or growth inhibition)
Protocol: 24-well microtiter plates with artificial diet were treated with aqueous test solutions prepared from 10′000 ppm DMSO stock solutions by pipetting. After drying, the plates were infested with L2 larvae (6-8 per well). The samples were assessed for mortality, anti-feeding effect, and growth inhibition in comparison to untreated samples 6 days after infestation. Control of Chilo suppressalis by a test sample is given when at least one of the categories mortality, anti-feedant effect, and growth inhibition is higher than the untreated sample.

Diabrotica balteata = assay: Activity against Diabrotica balteata (corn root worm); conditions: 96 h, application rate 200 ppm, sprayed maize sprouts, L2 larvae, 4 days after infestation, read-out: effect in at least one of the two categories (mortality or growth inhibition)
Protocol: Maize sprouts placed onto an agar layer in 24-well microtiter plates were treated with aqueous test solutions prepared from 10′000 ppm DMSO stock solutions by spraying. After drying, the plates were infested with L2 larvae (6 to 10 per well). The samples were assessed for mortality and growth inhibition in comparison to untreated samples 4 days after infestation.

[3] = test system: Carpocapsa (Cydia) pomonella; assay: Activity against Carpocapsa (Cydia) pomonella (codling moth); conditions: 336 h, application rate 12.5 ppm, sprayed diet cubes, L1 larvae, 14 days after infestation
Protocol: Diet cubes coated with paraffin were sprayed with diluted test solutions in an application chamber. After drying off the treated cubes (10 replicates) were infested with 1 L1 larvae. Samples were incubated at 26-27° C. and checked 14 days after infestation for mortality and growth inhibition.

[4] = test system: Frankliniella occidentalis; assay: Activity against Frankliniella occidentalis (western flower thrips); conditions: foliar, 168 h, application rate 200 ppm, sprayed sunflower leaf discs, mixed ages, 7 days after infestation
Protocol: Sunflower leaf discs were placed on agar in 24-well microtiter plates and sprayed with aqueous test solutions prepared from […] stock solutions. After drying the leaf discs were infested with a Frankliniella population of mixed ages. The samples were assessed for mortality 7 days after infestation.

CCS(=O)(=O)c1cccnc1-c1cc2ccc(=O)n(CC(F)(F)C(F)(F)F)c2cn1 [P2, 6-(3-ethylsulfonyl-2-pyridyl)-1-(2,2,3,3,3-pentafluoropropyl)-1,7-naphthyridin-2-one]
≥ 80%: percent effect (mortality or growth inhibition) at 200 ppm (Plutella xylostella) | mortality at 24 ppm (Myzus persicae [1]) | percent effect (mortality or growth inhibition) at 200 ppm (Euschistus heros) | mortality at 200 ppm (Myzus persicae [2]) | percent control (mortality, anti-feedant effect or growth inhibition) at 200 ppm (Spodoptera littoralis) | percent control (mortality, anti-feedant effect or growth inhibition) at 200 ppm (Chilo suppressalis) | percent effect (mortality or growth inhibition) at 200 ppm (Diabrotica balteata)

CCS(=O)(=O)c1cc(C2(C#N)CC2)cnc1-c1cc2ccc(=O)n(CC(F)(F)C(F)(F)F)c2cn1 [P3, 1-[5-ethylsulfonyl-6-[2-oxo-1-(2,2,3,3,3-pentafluoropropyl)-1,7-naphthyridin-6-yl]-3-pyridyl]cyclopropanecarbonitrile]
≥ 80%: mortality at 12.5 ppm [3] | percent effect (mortality or growth inhibition) at 200 ppm (Plutella xylostella) | mortality at 24 ppm (Myzus persicae [1]) | mortality at 200 ppm [4] | percent effect (mortality or growth inhibition) at 200 ppm (Euschistus heros) | mortality at 200 ppm (Myzus persicae [2]) | percent control (mortality, anti-feedant effect or growth inhibition) at 200 ppm (Spodoptera littoralis) | percent control (mortality, anti-feedant effect or growth inhibition) at 200 ppm (Chilo suppressalis) | percent effect (mortality or growth inhibition) at 200 ppm (Diabrotica balteata)

CCS(=O)(=O)c1ccc(-n2cncn2)nc1-c1cc2ccc(=O)n(CC(F)(F)C(F)(F)F)c2cn1 [P4, 6-[3-ethylsulfonyl-6-(1,2,4-triazol-1-yl)-2-pyridyl]-1-(2,2,3,3,3-pentafluoropropyl)-1,7-naphthyridin-2-one]
≥ 80%: mortality at 12.5 ppm [3] | percent effect (mortality or growth inhibition) at 200 ppm (Plutella xylostella) | percent control (mortality, anti-feedant effect or growth inhibition) at 200 ppm (Spodoptera littoralis) | percent control (mortality, anti-feedant effect or growth inhibition) at 200 ppm (Chilo suppressalis)

CCS(=O)(=O)c1ccc(C2CC2)nc1-c1cc2ccc(=O)n(CC(F)(F)C(F)(F)F)c2cn1 [P5, 6-(6-cyclopropyl-3-ethylsulfonyl-2-pyridyl)-1-(2,2,3,3,3-pentafluoropropyl)-1,7-naphthyridin-2-one]
≥ 80%: percent effect (mortality or growth inhibition) at 200 ppm (Plutella xylostella) | mortality at 200 ppm (Myzus persicae [2]) | percent control (mortality, anti-feedant effect or growth inhibition) at 200 ppm (Spodoptera littoralis) | percent control (mortality, anti-feedant effect or growth inhibition) at 200 ppm (Chilo suppressalis) | percent effect (mortality or growth inhibition) at 200 ppm (Diabrotica balteata)

CCS(=O)(=O)c1cc(C(C)(C)C#N)cnc1-c1cc2ccc(=O)n(CC(F)(F)C(F)(F)F)c2cn1 [P6, 2-[5-ethylsulfonyl-6-[2-oxo-1-(2,2,3,3,3-pentafluoropropyl)-1,7-naphthyridin-6-yl]-3-pyridyl]-2-methyl-propanenitrile]
≥ 80%: mortality at 12.5 ppm [3] | percent effect (mortality or growth inhibition) at 200 ppm (Plutella xylostella) | percent effect (mortality or growth inhibition) at 200 ppm (Euschistus heros) | percent control (mortality, anti-feedant effect or growth inhibition) at 200 ppm (Spodoptera littoralis) | percent control (mortality, anti-feedant effect or growth inhibition) at 200 ppm (Chilo suppressalis) | percent effect (mortality or growth inhibition) at 200 ppm (Diabrotica balteata)

CCS(=O)(=O)c1cc(N(C)C(C)=O)cnc1-c1cc2ccc(=O)n(CC(F)(F)C(F)(F)F)c2cn1 [P7, N-[5-ethylsulfonyl-6-[2-oxo-1-(2,2,3,3,3-pentafluoropropyl)-1,7-naphthyridin-6-yl]-3-pyridyl]-N-methyl-acetamide]
≥ 80%: mortality at 24 ppm (Myzus persicae [1]) | mortality at 200 ppm (Myzus persicae [2]) | percent control (mortality, anti-feedant effect or growth inhibition) at 200 ppm (Spodoptera littoralis) | percent control (mortality, anti-feedant effect or growth inhibition) at 200 ppm (Chilo suppressalis) | percent effect (mortality or growth inhibition) at 200 ppm (Diabrotica balteata)

CCS(=O)(=O)c1cc(-n2ccc(Cl)n2)cnc1-c1cc2ccc(=O)n(CC(F)(F)C(F)(F)F)c2cn1 [P8, 6-[5-(3-chloropyrazol-1-yl)-3-ethylsulfonyl-2-pyridyl]-1-(2,2,3,3,3-pentafluoropropyl)-1,7-naphthyridin-2-one]
≥ 80%: percent effect (mortality or growth inhibition) at 200 ppm (Plutella xylostella) | percent effect (mortality or growth inhibition) at 200 ppm (Euschistus heros) | percent control (mortality, anti-feedant effect or growth inhibition) at 200 ppm (Spodoptera littoralis) | percent control (mortality, anti-feedant effect or growth inhibition) at 200 ppm (Chilo suppressalis) | percent effect (mortality or growth inhibition) at 200 ppm (Diabrotica balteata)

CCS(=O)(=O)c1cc(Oc2ccccn2)cnc1-c1cc2ccc(=O)n(CC(F)(F)C(F)(F)F)c2cn1 [P9, 6-[3-ethylsulfonyl-5-(2-pyridyloxy)-2-pyridyl]-1-(2,2,3,3,3-pentafluoropropyl)-1,7-naphthyridin-2-one]
≥ 80%: percent effect (mortality or growth inhibition) at 200 ppm (Euschistus heros) | percent control (mortality, anti-feedant effect or growth inhibition) at 200 ppm (Spodoptera littoralis) | percent control (mortality, anti-feedant effect or growth inhibition) at 200 ppm (Chilo suppressalis) | percent effect (mortality or growth inhibition) at 200 ppm (Diabrotica balteata)

CCS(=O)(=O)c1cc(C2(C#N)CC2)cnc1-c1cc2ccc(=O)n(CC(F)(F)F)c2cn1 [P10, 1-[5-ethylsulfonyl-6-[2-oxo-1-(2,2,2-trifluoroethyl)-1,7-naphthyridin-6-yl]-3-pyridyl]cyclopropanecarbonitrile]
≥ 80%: percent effect (mortality or growth inhibition) at 200 ppm (Euschistus heros) | mortality at 200 ppm (Myzus persicae [2]) | percent control (mortality, anti-feedant effect or growth inhibition) at 200 ppm (Spodoptera littoralis) | percent control (mortality, anti-feedant effect or growth inhibition) at 200 ppm (Chilo suppressalis) | percent effect (mortality or growth inhibition) at 200 ppm (Diabrotica balteata)

CCS(=O)(=O)c1ccc(-n2nccn2)nc1-c1cc2ccc(=O)n(CC(F)(F)C(F)(F)F)c2cn1 [P11, 6-[3-ethylsulfonyl-6-(triazol-2-yl)-2-pyridyl]-1-(2,2,3,3,3-pentafluoropropyl)-1,7-naphthyridin-2-one]
≥ 80%: percent control (mortality, anti-feedant effect or growth inhibition) at 200 ppm (Spodoptera littoralis) | percent control (mortality, anti-feedant effect or growth inhibition) at 200 ppm (Chilo suppressalis) | percent effect (mortality or growth inhibition) at 200 ppm (Diabrotica balteata)

CCS(=O)(=O)c1ccc(-n2ccnn2)nc1-c1cc2ccc(=O)n(CC(F)(F)C(F)(F)F)c2cn1 [P12, 6-[3-ethylsulfonyl-6-(triazol-1-yl)-2-pyridyl]-1-(2,2,3,3,3-pentafluoropropyl)-1,7-naphthyridin-2-one]
≥ 80%: percent control (mortality, anti-feedant effect or growth inhibition) at 200 ppm (Spodoptera littoralis) | percent control (mortality, anti-feedant effect or growth inhibition) at 200 ppm (Chilo suppressalis) | percent effect (mortality or growth inhibition) at 200 ppm (Diabrotica balteata)

CCSc1cc(C2(C#N)CC2)cnc1-c1cc2ccc(=O)n(CC(F)(F)C(F)(F)F)c2cn1 [P13, 1-[5-ethylsulfanyl-6-[2-oxo-1-(2,2,3,3,3-pentafluoropropyl)-1,7-naphthyridin-6-yl]-3-pyridyl]cyclopropanecarbonitrile]
≥ 80%: percent effect (mortality or growth inhibition) at 200 ppm (Plutella xylostella) | percent control (mortality, anti-feedant effect or growth inhibition) at 200 ppm (Spodoptera littoralis) | percent control (mortality, anti-feedant effect or growth inhibition) at 200 ppm (Chilo suppressalis) | percent effect (mortality or growth inhibition) at 200 ppm (Diabrotica balteata)

CCSc1cc(-n2ccc(Cl)n2)cnc1-c1cc2ccc(=O)n(CC(F)(F)C(F)(F)F)c2cn1 [P14, 6-[5-(3-chloropyrazol-1-yl)-3-ethylsulfanyl-2-pyridyl]-1-(2,2,3,3,3-pentafluoropropyl)-1,7-naphthyridin-2-one]
≥ 80%: percent control (mortality, anti-feedant effect or growth inhibition) at 200 ppm (Chilo suppressalis)

CCSc1cc(C2(C#N)CC2)cnc1-c1cc2ccc(=O)n(CC(F)(F)F)c2cn1 [P15, 1-[5-ethylsulfanyl-6-[2-oxo-1-(2,2,2-trifluoroethyl)-1,7-naphthyridin-6-yl]-3-pyridyl]cyclopropanecarbonitrile]
≥ 80%: percent control (mortality, anti-feedant effect or growth inhibition) at 200 ppm (Spodoptera littoralis) | percent control (mortality, anti-feedant effect or growth inhibition) at 200 ppm (Chilo suppressalis) | percent effect (mortality or growth inhibition) at 200 ppm (Diabrotica balteata)
